Test results as given in publication PMC11013419, “Understanding Antidiabetic Potential of Oligosaccharides from Red Alga Dulse Devaleraea inkyuleei Xylan by Investigating α-Amylase and α-Glucosidase Inhibition” (Molecules, 2024).

Tests used:
MGAM [1] = molecular target: MGAM; design: method as in PMID 22058037; settings: as reported; cited from earlier work
[2] = molecular target: T1, recombined human maltase-glucoamylase (MGAM) (Homo sapiens, UniProt O43451); assay: MGAM inhibition assay (glucose released from maltose); type: biochemical; settings: maltose substrate, 37 °C, pH 6.4
T1 construct: made in house
T1 sequence (O43451 whole entry): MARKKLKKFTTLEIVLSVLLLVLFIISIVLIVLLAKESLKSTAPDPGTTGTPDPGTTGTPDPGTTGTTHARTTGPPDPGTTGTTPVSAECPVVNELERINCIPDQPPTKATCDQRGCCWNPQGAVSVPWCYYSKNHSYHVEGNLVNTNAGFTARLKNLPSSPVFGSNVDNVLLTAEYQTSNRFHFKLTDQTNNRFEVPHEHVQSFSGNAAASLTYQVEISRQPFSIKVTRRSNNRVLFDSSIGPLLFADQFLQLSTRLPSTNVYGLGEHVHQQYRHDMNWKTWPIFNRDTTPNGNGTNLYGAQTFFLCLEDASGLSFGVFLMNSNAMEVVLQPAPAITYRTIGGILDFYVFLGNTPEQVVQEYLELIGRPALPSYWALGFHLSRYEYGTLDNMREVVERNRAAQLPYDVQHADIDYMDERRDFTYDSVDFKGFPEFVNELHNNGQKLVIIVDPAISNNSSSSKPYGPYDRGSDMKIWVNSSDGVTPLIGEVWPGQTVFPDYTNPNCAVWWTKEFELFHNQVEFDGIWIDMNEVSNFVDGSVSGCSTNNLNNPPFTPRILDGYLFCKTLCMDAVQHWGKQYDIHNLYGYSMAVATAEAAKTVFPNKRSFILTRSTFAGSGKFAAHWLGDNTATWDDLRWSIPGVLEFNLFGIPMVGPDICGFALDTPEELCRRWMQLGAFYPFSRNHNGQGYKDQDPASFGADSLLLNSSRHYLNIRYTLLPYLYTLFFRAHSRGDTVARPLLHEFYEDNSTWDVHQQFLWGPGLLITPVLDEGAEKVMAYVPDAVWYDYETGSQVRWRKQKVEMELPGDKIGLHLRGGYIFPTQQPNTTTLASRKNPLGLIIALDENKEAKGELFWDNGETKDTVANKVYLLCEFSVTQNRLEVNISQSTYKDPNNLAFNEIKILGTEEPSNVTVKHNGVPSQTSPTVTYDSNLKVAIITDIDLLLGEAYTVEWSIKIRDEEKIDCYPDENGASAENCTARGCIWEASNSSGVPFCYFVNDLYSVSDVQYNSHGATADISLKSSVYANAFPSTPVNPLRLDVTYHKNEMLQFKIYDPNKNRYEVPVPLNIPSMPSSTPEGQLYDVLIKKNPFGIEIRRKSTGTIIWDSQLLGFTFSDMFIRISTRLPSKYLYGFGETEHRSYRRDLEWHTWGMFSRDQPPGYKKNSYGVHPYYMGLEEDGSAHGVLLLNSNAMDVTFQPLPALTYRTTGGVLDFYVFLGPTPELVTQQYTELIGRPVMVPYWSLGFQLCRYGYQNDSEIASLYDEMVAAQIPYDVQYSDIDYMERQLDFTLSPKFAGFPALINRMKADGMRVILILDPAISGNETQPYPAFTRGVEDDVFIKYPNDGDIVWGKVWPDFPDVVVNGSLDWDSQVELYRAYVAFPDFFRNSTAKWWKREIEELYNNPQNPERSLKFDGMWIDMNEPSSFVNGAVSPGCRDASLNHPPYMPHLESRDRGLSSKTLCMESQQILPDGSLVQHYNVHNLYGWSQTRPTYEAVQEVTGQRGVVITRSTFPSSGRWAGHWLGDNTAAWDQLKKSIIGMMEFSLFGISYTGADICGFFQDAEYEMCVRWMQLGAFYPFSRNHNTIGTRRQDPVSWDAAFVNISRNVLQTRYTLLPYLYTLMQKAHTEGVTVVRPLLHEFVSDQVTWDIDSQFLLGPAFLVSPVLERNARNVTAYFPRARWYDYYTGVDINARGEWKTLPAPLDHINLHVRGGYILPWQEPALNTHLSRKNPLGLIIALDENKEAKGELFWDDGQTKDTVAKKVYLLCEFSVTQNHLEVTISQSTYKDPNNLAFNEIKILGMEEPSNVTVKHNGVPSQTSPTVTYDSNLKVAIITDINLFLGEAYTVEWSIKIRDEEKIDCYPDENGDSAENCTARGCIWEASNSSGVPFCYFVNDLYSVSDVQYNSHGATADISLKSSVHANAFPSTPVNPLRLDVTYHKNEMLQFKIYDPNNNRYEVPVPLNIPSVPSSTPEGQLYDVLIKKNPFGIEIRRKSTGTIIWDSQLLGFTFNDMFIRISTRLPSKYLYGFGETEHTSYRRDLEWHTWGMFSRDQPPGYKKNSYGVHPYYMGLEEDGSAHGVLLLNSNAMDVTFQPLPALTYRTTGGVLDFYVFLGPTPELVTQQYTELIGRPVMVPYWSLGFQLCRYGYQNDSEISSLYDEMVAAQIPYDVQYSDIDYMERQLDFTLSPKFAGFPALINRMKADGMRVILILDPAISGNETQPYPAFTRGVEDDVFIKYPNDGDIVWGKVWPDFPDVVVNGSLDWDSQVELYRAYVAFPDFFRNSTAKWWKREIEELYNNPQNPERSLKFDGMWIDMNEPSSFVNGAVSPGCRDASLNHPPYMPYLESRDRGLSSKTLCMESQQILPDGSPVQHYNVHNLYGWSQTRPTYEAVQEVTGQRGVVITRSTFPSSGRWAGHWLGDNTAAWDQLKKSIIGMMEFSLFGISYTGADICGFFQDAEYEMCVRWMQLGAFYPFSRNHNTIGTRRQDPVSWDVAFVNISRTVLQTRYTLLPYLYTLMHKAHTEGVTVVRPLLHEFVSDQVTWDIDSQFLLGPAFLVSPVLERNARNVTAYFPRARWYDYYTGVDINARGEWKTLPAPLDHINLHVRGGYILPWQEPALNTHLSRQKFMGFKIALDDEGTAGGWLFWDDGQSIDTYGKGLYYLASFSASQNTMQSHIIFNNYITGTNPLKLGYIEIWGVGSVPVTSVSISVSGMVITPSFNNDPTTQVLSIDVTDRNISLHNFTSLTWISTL
Protocol: (§1) For this experiment, recombined human maltase-glucoamylase (MGAM) was prepared as previously reported and dissolved in 0.1 M phosphate buffer (pH 6.4) to produce a solution at 0.5 U/mL. Pre-incubation was initiated by mixing 20 µL of MGAM solution with 20 µL of inhibitor or distilled water for 10 min at 37 °C. Then, 40 µL of 8 mM maltose or phosphate buffer was added and the mixture was incubated at 37 °C for 10 min, and the reaction was stopped by boiling for 10 min and cooling in an ice bath. Glucose was quantified using a Glucose CII-test (Wako Pure Chemical Industries, Osaka, Japan). The 20 µL reaction mixture was added to a 100 µL of Glucose CII-test. The reaction proceeded for 10 min at 37 °C, and the absorbance at 492 nm was measured. The inhibition was analysed at different inhibitor and substrate concentrations. The half-maximum inhibition concentration (IC50) was calculated using nonlinear regression. The MGAM inhibitory activity was calculated as follows: MGAM inhibitory activity=1−As−A0/Ac×100 where As represents the absorbance of the sample, Ac is the absorbance of the control without the inhibitor, and A0 is the absorbance of the sample without MGAM.

MGAM [3] = molecular target: T2, MGAM (Homo sapiens, UniProt O43451); assay: Kinetics of MGAM inhibition (Michaelis–Menten, Lineweaver–Burk); type: biochemical; settings: for Inhibition Type (MGAM): Lineweaver–Burk plot; for Vmax^app, inhibitor concentration A / Vmax^app, inhibitor concentration B / Vmax^app, inhibitor concentration C: MGAM, without inhibitor 0.089; for Vmax^app, inhibitor concentration A: A: X2 1.49, X3 1.63, DX3 1.33, DX4 1.28 mg/mL; for Vmax^app, inhibitor concentration B: B: X2 2.79, X3 4.08, DX3 3.32, DX4 3.19 mg/mL; for Vmax^app, inhibitor concentration C: C: X2 3.73, X3 10.19, DX3 8.30, DX4 7.98 mg/mL; for Ki: competitive inhibition constant
T2 construct: made in house
T2 sequence (O43451 whole entry): as above
Protocol: as §1
To study the kinetics of MGAM and α-amylase inhibition by XOS, the initial velocity in absorbance/min (ΔOD/min) was calculated at different substrate concentrations (0 to 10 mg/mL starch concentration for α-amylase and 0 to 8 mM maltose concentration for MGAM) and XOS concentrations. The values of initial velocity at different substrate concentrations at each XOS concentration was plotted (Michaelis–Menten plot), as well as the double reciprocal plot at each XOS concentration (Lineweaver–Burk plot).
The Michaelis–Menten equation for competitive inhibition is given as follows: v=Vmax×S/Km1+I/Ki+S=Vmaxapp×S/Kmapp+S
And the corresponding Lineweaver–Burk equation is given as follows: 1/v=Km/Vmax1+I/Ki1/S+1/Vmax where v is the initial velocity, Vmax is the maximum initial reaction velocity, I is the concentration of the inhibitor, S is the concentration of the substrate, Km is the Michaelis constant, and Ki is the competitive inhibition constant.

[4] = molecular target: T3, α-amylase from porcine pancreas (Sus scrofa, UniProt P00690); assay: α-Amylase inhibition assay (starch, DNS method); type: biochemical; settings: for IC50: porcine pancreas α-amylase, 1% starch, 37 °C, pH 6.9
T3 construct: α-amylase from porcine pancreas (EC 3.2.1.1), type VI-B; purchased Sigma Aldrich type VI-B; host or cells: porcine pancreas
T3 sequence (P00690 16-511): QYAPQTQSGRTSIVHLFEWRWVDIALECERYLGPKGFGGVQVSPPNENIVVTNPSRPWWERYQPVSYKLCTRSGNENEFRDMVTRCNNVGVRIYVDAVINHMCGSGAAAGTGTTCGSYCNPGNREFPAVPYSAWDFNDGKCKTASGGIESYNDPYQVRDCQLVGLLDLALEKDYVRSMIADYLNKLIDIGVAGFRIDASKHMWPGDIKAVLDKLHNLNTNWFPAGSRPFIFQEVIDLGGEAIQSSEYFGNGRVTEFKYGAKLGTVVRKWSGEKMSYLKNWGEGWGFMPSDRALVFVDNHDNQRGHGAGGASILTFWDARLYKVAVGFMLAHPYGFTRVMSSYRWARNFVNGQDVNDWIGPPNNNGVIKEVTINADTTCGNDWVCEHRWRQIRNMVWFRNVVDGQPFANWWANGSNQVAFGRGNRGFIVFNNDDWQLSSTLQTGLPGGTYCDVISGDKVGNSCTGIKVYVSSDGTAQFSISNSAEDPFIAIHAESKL
Protocol: (§2) The α-amylase from porcine pancreas solution was freshly prepared by mixing enzyme powder with 20 mM phosphate buffer (pH 6.9) containing 6.7 mM NaCl to produce a solution at 3 U/mL [39]. Pre-incubation was initiated by mixing 20 µL of α-amylase solution with 20 µL of inhibitor or distilled water for 10 min at 37 °C. Then, 20 µL of 1% (w/v) starch (prepared in 20 mM phosphate buffer (pH 6.9) containing 6.7 mM NaCl and heated at 100 °C for 10 min) or phosphate buffer was added, and the mixture was incubated at 37 °C for 10 min. The reaction was stopped by boiling the mixture for 10 min and cooling in an ice bath. The concentration of reducing sugars was calculated by the DNS method. The inhibition was analysed at different inhibitor and substrate concentrations. The half-maximum inhibition concentration (IC50) was calculated using nonlinear regression. The α-amylase inhibitory activity was calculated as follows: α-amylase inhibitory activity=1−As−A0/Ac×100 where As represents the absorbance of the sample, Ac is the absorbance of the control without the inhibitor, and A0 is the absorbance of the sample without α-amylase.

α-amylase = molecular target: T4, α-amylase (Sus scrofa, UniProt P00690); assay: Kinetics of α-amylase inhibition (Michaelis–Menten, Lineweaver–Burk); type: biochemical, porcine
T4 construct: α-amylase from porcine pancreas (EC 3.2.1.1), type VI-B; purchased Sigma Aldrich type VI-B; host or cells: porcine pancreas
T4 sequence (P00690 16-511): T3 sequence (P00690 16-511)
Protocol: as §2, with “α-amylase. […]” for “α-amylase.”

α-glucosidase = test system: α-glucosidase; design: method as in doi:10.1007/s12257-017-0049-8; settings: at 10 mg/mL; cited from earlier work

| SMILES | IC50 [2] | Inhibition Type (MGAM) (MGAM [3]) | Vmax^app, inhibitor concentration A (MGAM [3]) | Vmax^app, inhibitor concentration B (MGAM [3]) | Vmax^app, inhibitor concentration C (MGAM [3]) | Ki (MGAM [3]) | inhibition rate (α-glucosidase) | also measured |
| --- | --- | --- | --- | --- | --- | --- | --- | --- |
| C[C@H]1O[C@H](O[C@H]2[C@H](O)[C@@H](O)[C@@H](O[C@H]3[C@H](O)[C@@H](O)C(O)O[C@@H]3CO)O[C@@H]2CO)[C@H](O)[C@@H](O)[C@@H]1N[C@H]1C=C(CO)[C@@H](O)[C@H](O)[C@H]1O (stereo partly shown) [Acarbose] |  |  |  |  |  |  |  | Ki (MGAM [1]): 0.062 mM; Ki for MGAM (MGAM [1]): 40 µg/mL |
| OC1COC(OC2C(O)COC(OC3COC(O)C(O)C3O)C2O)C(O)C1O (stereo not drawn) [DX3, β-(1→3)-xylosyl-β-(1→4)-xylobiose] | 32.3 mM | Competitive | 0.101 DO/min | 0.093 DO/min | 0.102 DO/min | 44.2 mM |  | IC50 [4]: 128 mM |
| OC1COC(OC2C(O)COC(OC3COC(OC4COC(O)C(O)C4O)C(O)C3O)C2O)C(O)C1O (stereo not drawn) [DX4, β-(1→3)-xylosyl-β-(1→4)-xylotriose] | 23.6 mM | Competitive | 0.102 DO/min | 0.105 DO/min | 0.102 DO/min | 42.7 mM |  | inhibition at 10640 µg/mL ([4]; at 10.64 mg/mL): 2.9% |
| OC1COC(OC2COC(O)C(O)C2O)C(O)C1O (stereo not drawn) [X2, β-(1→4)-xylobiose] | 45 mM | Competitive | 0.086 DO/min | 0.086 DO/min | 0.086 DO/min | 53.9 mM |  | Inhibition type (α-amylase) (α-amylase; Lineweaver–Burk plot): competitive; Vmax^app (α-amylase) (α-amylase; X2 12.42 mg/mL, X3 13.58 mg/mL, without inhibitor 0.056): 0.061 DO/min; IC50 [4]: 64 mM |
| OC[C@H]1OC(O)[C@H](O)[C@@H](O[C@@H]2O[C@H]3CO[C@@H]([C@@H]2O)[C@@H]3O)[C@H]1O (stereo partly shown) [neoagarobiose] |  |  |  |  |  |  | 35.3% |  |
| OC[C@H]1O[C@@H](O)[C@H](O)[C@@H](O[C@@H]2O[C@H]3CO[C@@H]([C@@H]2O)[C@@H]3O[C@@H]2O[C@H](CO)[C@H](O)[C@H](O[C@@H]3O[C@H]4CO[C@@H]([C@@H]3O)[C@@H]4O[C@@H]3O[C@H](CO)[C@H](O)[C@H](O[C@@H]4O[C@H]5CO[C@@H]([C@@H]4O)[C@@H]5O)[C@H]3O)[C@H]2O)[C@H]1O [neoagarohexaose] |  |  |  |  |  |  | 17.0% |  |
| OC[C@H]1O[C@@H](O)[C@H](O)[C@@H](O[C@@H]2O[C@H]3CO[C@@H]([C@@H]2O)[C@@H]3O[C@@H]2O[C@H](CO)[C@H](O)[C@H](O[C@@H]3O[C@H]4CO[C@@H]([C@@H]3O)[C@@H]4O)[C@H]2O)[C@H]1O [neoagarotetraose] |  |  |  |  |  |  | 33.2% |  |
